{"source": "ChEMBL document CHEMBL5465560", "about": "“Selectivity Literature for EUbOPEN Chemogenomic Library” (2024)", "key": {"[1]": {"molecular_target": "Rho-associated protein kinase 2 (Homo sapiens, UniProt O75116)", "test": "Selectivity interaction (KinomeScan (DiscoverX)) EUB0000229b ROCK2", "details": "at 10 µM"}, "[2]": {"molecular_target": "Proto-oncogene tyrosine-protein kinase ROS (Homo sapiens) (UniProt P08922)", "test": "Selectivity interaction (Upstate Kinase Profiler service (Millipore)) EUB0000056c ROS1", "details": "at 1 µM"}, "[3]": {"molecular_target": "Receptor-type tyrosine-protein kinase FLT3 (Homo sapiens) (UniProt P36888)", "test": "Selectivity interaction (Upstate Kinase Profiler service (Millipore)) EUB0000056c FLT3", "details": "at 1 µM"}, "[4]": {"molecular_target": "LIM domain kinase 1 (Homo sapiens) (UniProt P53667)", "test": "Selectivity interaction (KinomeScan (DiscoverX)) EUB0000655a LIMK1", "details": "at 10 µM"}, "[5]": {"molecular_target": "Serine/threonine-protein kinase OSR1 (Homo sapiens) (UniProt O95747)", "test": "Selectivity interaction (Kinase panel (DSF assay)) EUB0001559a OXSR1"}, "[6]": {"molecular_target": "T1, Ephrin type-B receptor 6 (Homo sapiens) (UniProt O15197)", "T1 sequence (whole entry)": "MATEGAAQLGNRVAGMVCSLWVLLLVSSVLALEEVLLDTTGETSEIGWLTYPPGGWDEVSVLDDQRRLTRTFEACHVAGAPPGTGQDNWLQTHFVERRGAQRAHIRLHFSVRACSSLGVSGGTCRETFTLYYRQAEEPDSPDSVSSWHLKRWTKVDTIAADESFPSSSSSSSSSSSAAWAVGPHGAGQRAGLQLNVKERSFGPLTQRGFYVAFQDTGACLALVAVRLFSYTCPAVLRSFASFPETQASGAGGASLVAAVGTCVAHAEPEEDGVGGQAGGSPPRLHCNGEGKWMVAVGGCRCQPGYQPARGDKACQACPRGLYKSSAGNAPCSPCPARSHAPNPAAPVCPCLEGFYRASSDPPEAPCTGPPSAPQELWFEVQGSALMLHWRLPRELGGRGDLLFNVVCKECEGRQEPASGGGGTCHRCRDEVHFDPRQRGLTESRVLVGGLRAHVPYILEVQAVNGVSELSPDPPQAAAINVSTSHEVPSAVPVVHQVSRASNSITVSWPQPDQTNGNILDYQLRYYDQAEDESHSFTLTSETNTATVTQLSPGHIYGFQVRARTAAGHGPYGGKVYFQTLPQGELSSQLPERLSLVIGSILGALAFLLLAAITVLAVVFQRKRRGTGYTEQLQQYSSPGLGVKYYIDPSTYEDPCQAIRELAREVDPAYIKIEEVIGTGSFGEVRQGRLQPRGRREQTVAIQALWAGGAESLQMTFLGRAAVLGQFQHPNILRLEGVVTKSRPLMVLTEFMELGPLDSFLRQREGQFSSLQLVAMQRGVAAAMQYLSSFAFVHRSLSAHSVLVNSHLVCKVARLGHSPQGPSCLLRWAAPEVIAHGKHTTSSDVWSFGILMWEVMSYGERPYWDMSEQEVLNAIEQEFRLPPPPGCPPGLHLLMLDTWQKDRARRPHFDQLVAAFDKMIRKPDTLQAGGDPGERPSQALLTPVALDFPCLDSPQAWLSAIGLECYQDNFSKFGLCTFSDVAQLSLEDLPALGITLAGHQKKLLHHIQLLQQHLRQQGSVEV", "test": "Selectivity interaction (KinomeScan (DiscoverX)) EUB0001079a EPHB6", "details": "at 1 µM"}, "[7]": {"molecular_target": "Vascular endothelial growth factor receptor 2 (Homo sapiens, UniProt P35968)", "sequence (P35968 whole entry)": "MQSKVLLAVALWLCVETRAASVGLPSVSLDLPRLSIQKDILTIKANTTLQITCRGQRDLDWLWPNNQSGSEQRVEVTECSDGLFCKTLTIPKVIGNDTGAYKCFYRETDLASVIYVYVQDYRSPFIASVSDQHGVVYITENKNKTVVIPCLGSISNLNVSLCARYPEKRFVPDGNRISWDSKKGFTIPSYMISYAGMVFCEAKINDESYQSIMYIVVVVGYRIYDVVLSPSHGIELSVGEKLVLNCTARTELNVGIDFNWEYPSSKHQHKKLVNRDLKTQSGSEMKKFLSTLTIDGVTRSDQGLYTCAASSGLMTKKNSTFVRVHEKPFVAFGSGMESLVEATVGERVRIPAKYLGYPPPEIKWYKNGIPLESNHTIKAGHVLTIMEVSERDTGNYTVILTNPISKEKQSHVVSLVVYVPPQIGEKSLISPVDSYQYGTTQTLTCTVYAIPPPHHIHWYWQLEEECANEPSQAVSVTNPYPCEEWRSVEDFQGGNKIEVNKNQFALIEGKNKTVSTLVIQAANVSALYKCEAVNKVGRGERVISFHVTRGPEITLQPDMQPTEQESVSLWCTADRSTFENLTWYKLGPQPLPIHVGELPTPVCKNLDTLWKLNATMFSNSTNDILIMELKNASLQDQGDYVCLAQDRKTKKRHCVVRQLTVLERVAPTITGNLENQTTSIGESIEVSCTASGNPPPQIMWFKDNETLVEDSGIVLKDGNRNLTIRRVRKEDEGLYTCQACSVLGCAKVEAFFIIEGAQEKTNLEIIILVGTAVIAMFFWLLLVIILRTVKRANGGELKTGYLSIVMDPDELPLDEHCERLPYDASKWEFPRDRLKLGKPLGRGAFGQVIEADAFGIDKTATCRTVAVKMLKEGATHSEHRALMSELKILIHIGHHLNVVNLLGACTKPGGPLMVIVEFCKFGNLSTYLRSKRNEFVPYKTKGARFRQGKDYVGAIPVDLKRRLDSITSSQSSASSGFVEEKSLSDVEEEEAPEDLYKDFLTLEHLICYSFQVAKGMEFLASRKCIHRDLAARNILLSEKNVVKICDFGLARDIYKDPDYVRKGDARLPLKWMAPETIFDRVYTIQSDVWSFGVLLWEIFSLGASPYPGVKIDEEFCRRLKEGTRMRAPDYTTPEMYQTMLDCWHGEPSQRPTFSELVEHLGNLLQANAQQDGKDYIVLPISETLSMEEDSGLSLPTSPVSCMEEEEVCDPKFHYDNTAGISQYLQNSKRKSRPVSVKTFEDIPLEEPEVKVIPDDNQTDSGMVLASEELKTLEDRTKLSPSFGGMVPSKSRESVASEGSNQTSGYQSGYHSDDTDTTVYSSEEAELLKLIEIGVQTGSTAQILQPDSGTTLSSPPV", "test": "Selectivity interaction (KinomeScan (DiscoverX)) EUB0000666a KDR", "details": "at 10 µM"}, "[8]": {"molecular_target": "T2, Tyrosine-protein kinase ZAP-70 (Homo sapiens, UniProt P43403)", "T2 sequence (P43403 whole entry)": "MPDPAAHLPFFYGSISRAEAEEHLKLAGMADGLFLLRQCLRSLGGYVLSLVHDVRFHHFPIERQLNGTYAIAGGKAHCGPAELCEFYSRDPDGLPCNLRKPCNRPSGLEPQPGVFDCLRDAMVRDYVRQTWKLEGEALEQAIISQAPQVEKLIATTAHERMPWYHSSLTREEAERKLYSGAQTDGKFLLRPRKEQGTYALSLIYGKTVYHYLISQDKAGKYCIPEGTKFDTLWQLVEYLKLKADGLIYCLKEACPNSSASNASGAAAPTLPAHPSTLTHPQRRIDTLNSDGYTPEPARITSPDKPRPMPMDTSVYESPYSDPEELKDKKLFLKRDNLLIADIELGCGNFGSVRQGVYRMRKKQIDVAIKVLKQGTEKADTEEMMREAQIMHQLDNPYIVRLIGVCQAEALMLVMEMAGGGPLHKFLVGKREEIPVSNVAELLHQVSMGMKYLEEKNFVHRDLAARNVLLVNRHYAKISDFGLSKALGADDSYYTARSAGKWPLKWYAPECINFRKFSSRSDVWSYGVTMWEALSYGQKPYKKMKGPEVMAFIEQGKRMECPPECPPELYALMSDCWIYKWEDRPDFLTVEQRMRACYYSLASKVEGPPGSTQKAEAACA", "test": "Selectivity interaction (Kinase panel (33PanQinase(R) Activity Assay)) EUB0000877a ZAP70"}, "[9]": {"molecular_target": "Tyrosine-protein kinase Blk (Homo sapiens) (UniProt P51451)", "sequence (P51451 2-505 limits assumed)": "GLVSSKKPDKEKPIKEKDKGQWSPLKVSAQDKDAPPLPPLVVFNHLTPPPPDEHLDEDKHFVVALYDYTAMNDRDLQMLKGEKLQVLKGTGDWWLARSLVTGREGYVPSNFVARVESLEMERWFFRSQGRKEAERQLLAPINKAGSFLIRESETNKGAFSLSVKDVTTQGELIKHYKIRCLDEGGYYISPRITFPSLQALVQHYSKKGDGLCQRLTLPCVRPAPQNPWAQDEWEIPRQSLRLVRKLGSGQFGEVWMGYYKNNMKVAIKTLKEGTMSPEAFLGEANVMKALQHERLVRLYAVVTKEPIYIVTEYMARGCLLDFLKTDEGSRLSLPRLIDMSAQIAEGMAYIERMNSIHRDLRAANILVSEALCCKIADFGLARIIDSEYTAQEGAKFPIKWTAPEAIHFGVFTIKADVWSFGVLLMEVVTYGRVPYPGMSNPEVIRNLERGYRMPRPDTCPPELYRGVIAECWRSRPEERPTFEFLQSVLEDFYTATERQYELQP", "details": "at 10 µM"}, "[10]": {"tested_on": "Epidermal growth factor receptor (Homo sapiens), P00533 [G719C]", "sequence (P00533 whole entry G719C)": "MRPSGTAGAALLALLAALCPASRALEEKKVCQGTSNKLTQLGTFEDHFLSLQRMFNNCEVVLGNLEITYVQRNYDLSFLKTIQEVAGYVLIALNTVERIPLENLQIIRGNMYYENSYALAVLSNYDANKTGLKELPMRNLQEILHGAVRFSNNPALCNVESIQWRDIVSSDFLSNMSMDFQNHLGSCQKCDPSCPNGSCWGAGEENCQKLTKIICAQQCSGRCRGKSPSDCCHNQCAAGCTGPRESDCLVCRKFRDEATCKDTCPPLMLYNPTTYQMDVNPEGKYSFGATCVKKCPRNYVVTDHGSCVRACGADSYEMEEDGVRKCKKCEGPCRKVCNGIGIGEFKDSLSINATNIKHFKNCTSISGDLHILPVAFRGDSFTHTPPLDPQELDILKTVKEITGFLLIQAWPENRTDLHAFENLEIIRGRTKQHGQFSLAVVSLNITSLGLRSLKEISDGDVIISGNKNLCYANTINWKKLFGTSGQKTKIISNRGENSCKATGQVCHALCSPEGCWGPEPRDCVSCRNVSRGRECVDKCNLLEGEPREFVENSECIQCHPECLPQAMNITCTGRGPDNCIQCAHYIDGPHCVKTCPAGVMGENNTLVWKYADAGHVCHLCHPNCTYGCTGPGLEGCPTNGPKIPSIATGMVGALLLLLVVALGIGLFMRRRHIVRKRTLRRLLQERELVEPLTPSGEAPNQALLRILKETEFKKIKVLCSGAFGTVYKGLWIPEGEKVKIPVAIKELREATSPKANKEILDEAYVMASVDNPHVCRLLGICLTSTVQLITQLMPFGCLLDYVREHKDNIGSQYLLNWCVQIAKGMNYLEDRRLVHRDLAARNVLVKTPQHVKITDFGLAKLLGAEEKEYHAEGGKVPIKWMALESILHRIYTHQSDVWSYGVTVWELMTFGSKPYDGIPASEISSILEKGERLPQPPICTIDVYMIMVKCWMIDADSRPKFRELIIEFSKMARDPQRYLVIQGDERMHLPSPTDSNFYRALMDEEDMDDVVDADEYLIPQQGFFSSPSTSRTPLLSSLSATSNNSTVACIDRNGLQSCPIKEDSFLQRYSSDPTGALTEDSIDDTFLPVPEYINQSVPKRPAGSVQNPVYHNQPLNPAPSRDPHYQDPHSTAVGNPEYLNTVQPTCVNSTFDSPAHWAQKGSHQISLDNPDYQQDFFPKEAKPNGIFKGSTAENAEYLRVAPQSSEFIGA", "details": "at 10 µM"}, "[11]": {"molecular_target": "Protein kinase C theta type (Homo sapiens, UniProt Q04759)", "sequence (Q04759 whole entry, looked up)": "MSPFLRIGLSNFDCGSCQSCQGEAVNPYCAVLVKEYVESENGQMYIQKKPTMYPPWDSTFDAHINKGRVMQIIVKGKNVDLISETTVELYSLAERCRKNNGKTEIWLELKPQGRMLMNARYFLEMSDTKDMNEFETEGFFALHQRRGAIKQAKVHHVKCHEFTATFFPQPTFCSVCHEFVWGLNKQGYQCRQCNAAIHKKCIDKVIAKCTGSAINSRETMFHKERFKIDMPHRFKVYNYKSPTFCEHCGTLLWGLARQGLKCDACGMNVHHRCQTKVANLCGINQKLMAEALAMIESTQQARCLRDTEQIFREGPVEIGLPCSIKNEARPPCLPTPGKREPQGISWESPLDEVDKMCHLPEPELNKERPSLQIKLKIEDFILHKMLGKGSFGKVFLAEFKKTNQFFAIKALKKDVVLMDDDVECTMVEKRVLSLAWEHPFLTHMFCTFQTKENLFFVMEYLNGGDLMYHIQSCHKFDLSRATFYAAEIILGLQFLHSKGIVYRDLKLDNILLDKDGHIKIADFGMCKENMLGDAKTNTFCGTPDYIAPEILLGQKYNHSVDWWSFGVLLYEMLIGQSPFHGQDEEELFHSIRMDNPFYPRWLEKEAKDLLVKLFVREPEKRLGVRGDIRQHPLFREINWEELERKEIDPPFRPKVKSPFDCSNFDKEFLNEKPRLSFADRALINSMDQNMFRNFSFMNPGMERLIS", "test": "Selectivity interaction (Kinase panel (Z-LYTE Assay)) EUB0001632a PRKCQ", "details": "at 10 µM"}, "[12]": {"molecular_target": "Mitogen-activated protein kinase kinase kinase kinase 5 (Homo sapiens) (UniProt Q9Y4K4)", "details": "at 10 µM"}, "[13]": {"molecular_target": "Misshapen-like kinase 1 (Homo sapiens, UniProt Q8N4C8)", "sequence (Q8N4C8 whole entry, looked up)": "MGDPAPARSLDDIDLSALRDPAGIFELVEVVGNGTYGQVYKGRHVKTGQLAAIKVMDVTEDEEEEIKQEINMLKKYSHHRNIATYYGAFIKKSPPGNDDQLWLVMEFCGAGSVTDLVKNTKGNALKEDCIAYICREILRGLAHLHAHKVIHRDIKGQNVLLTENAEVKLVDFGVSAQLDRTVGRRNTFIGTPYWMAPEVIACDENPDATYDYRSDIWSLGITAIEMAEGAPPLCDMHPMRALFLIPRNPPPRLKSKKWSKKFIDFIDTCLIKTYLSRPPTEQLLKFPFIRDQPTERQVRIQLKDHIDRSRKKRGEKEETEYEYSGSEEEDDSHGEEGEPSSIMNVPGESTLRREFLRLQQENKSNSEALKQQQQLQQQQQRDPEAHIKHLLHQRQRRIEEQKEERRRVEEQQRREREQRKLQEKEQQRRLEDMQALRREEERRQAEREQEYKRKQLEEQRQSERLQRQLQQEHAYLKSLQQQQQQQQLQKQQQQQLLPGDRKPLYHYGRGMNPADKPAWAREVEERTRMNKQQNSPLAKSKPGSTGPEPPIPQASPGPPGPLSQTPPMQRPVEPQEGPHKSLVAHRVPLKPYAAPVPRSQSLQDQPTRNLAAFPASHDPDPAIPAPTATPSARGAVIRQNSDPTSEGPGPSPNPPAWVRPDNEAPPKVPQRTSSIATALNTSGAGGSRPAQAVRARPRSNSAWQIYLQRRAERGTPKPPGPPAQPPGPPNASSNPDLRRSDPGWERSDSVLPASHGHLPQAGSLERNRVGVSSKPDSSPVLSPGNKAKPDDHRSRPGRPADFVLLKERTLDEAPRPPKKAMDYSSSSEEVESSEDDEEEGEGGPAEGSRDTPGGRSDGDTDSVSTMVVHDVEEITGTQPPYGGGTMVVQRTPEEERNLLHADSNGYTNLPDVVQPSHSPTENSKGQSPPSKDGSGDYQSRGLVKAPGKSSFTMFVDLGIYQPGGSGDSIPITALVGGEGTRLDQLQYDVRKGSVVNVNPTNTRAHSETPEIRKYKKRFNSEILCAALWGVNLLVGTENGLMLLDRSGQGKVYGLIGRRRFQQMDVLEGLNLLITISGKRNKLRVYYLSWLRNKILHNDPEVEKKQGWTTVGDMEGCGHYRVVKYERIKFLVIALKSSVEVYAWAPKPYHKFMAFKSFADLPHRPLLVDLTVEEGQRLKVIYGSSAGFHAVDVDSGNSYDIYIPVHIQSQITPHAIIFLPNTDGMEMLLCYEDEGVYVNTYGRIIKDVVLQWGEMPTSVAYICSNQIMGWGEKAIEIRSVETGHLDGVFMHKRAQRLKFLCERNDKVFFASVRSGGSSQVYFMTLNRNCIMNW", "test": "Selectivity interaction (Kinase panel (literature)) EUB0001199aCl MINK1", "details": "at 1 µM"}, "[14]": {"molecular_target": "T3, Mitogen-activated protein kinase 13 (Homo sapiens) (UniProt O15264)", "T3 sequence (whole entry)": "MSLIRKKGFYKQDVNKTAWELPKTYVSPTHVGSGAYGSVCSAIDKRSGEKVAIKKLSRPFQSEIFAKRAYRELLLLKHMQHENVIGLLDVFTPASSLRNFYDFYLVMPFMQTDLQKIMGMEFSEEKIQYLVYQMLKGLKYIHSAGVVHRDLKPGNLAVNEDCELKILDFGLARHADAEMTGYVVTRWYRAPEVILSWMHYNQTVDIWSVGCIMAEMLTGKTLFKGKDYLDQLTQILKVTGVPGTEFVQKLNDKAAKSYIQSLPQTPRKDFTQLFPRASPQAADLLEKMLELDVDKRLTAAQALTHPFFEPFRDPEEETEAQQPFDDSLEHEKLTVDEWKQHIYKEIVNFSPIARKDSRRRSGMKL", "test": "Selectivity interaction (KinomeScan (DiscoverX)) EUB0001619a MAPK13", "details": "at 1 µM"}}, "data": [{"smiles": "COc1cc(N(C)c2ccnc3ccc(C(F)(F)F)cc23)cc(OC)c1OC", "values": [{"measurement": "% binding", "setting": "[1]", "result": 100, "unit": "%"}]}, {"smiles": "Cc1ccc(-c2ccc3c(ccc4sc5c(c43)NC[C@@H](C)NC5=O)n2)cn1", "values": [{"measurement": "% of inhibition", "setting": "[2]", "result": -15, "unit": "%"}, {"measurement": "% of inhibition", "setting": "[3]", "result": -11, "unit": "%"}]}, {"smiles": "CN(C)CCOc1ccc(-c2nc(-c3ccncc3)c(-c3ccc4c(c3)CC/C4=N\\O)[nH]2)cc1", "values": [{"measurement": "% of control", "setting": "[4]", "result": 100, "unit": "%"}]}, {"smiles": "CN(C(=O)c1cnn2cccnc12)c1cc2c(cc1N1CCOCC1)C(=O)N(C[C@@H](F)C(C)(C)O)C2", "values": [{"measurement": "dTM", "setting": "[5]", "result": 0.3, "unit": "K"}]}, {"smiles": "Nc1cnc(N2CCc3cc(S(=O)(=O)Nc4c(F)cc(Cl)cc4F)cc(N4CCCC4=O)c32)nc1", "note": "[TP-020n]", "values": [{"measurement": "% of control", "setting": "[6]", "result": 100, "unit": "%"}]}, {"smiles": "O=C(NOC[C@H](O)CO)c1ccc(F)c(F)c1Nc1ccc(I)cc1F", "values": [{"measurement": "% of control", "setting": "[7]", "result": 84, "unit": "%"}]}, {"smiles": "CCC(=O)N1CC[C@H](Nc2ncnc3c2CN(c2cnc(OC)c(C(F)(F)F)c2)CC3)C1", "note": "[LENIOLISIB]", "values": [{"measurement": "IC50", "setting": "[8]", "result": "> 10", "unit": "µM"}]}, {"smiles": "Cc1cc([C@@H](C)Nc2ccccc2C(=O)O)c2nc(N3CCOCC3)cc(=O)n2c1", "note": "[AZD-6482]", "values": [{"measurement": "% of control", "setting": "[9]", "result": 99, "unit": "%"}, {"measurement": "% of control", "setting": "[10]", "result": 95, "unit": "%"}]}, {"smiles": "Cn1cc(-n2cnc3c(NCc4nc5cc(Cl)c(Cl)cc5[nH]4)nc(N4CCOCC4)nc32)cn1", "values": [{"measurement": "% of control", "setting": "[11]", "result": 14.5, "unit": "%"}]}, {"smiles": "COCC(=O)NC/C=C/c1ccc2ncnc(Nc3ccc(Oc4ccc(C)nc4)c(C)c3)c2c1", "note": "[CP-724714]", "values": [{"measurement": "% of control", "setting": "[12]", "result": 86, "unit": "%"}]}, {"smiles": "CN1Cc2nccc(-c3cn(C)nc3-c3ccc(F)cc3)c2C1=O", "values": [{"measurement": "% of inhibition", "setting": "[13]", "result": 42, "unit": "%"}]}, {"smiles": "N#Cc1cccc(-c2c[nH]c3ncnc(N4CCOCC4)c23)c1", "values": [{"measurement": "% of control", "setting": "[14]", "result": 70, "unit": "%"}]}]}
